Where two headings read alike, the source gives them in different places.
Test system: human primary T-cells, IL-2 stimulated proliferation (JAK-1 and JAK-3 dependent; reported as JAK3 activity)
Experiment: Human primary T-cell proliferation stimulated by IL-2 (Example 3)
Format: cell-based
Conditions: tested under conditions described in Example 3 (IL-2 stimulated human primary T-cell proliferation), read-out: ability to inhibit JAK3 activity, IC50 range (Table V)
Summary of the method: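 Peripheral-blood human T-cells pre-activated via TCR/CD28, IL-2-starved overnight, then cultured 72 h at 37 °C with compound in Yssel's medium containing IL-2 (80 U/mL in cell suspension). Proliferation read as viable-cell ATP by CellTiter-Glo luminescence; reduction versus control taken as JAK pathway inhibition.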

Question: For `Cc1ccc(Nc2ncc(C)c(Nc3ccc4oc(=O)[nH]c4c3)n2)cc1Cl` [Compound I-364, N2-(3-chloro-4-methyl)phenyl-5-methyl-N4-(2-oxo-2,3-dihydro-1,3-benzoxazol-5-yl)-2,4-pyrimidinediamine], which IC50 is on record?
Answer: < 500 nM

Question: Which IC50 does the source give for `Cc1cnc(Nc2cccc(-c3cnco3)c2)nc1Nc1ccc2oc(=O)[nH]c2c1` [Compound I-286, 5-methyl-N2-[3-(1,3-oxazol-5-yl)]phenyl-N4-(2-oxo-2,3-dihydro-1,3-benzoxazol-5-yl)-2,4-pyrimidinediamine] here?
Answer: < 500 nM

Question: With `COc1cc(C)cc(Nc2ncc(C)c(Nc3ccc4oc(=O)[nH]c4c3)n2)c1` [Compound I-259, 5-(2-(3-methoxy-5-methylphenylamino)-5-methylpyrimidin-4-ylamino)benzo[d]oxazol-2(3H)-one] as the molecule, how does the IC50 (Homo sapiens, T-cell) read?
Answer: < 500 nM

Question: With `Cc1cnc(Nc2ccc(C(=O)N3CCNCC3)nc2)nc1Nc1ccc2oc(=O)[nH]c2c1` [II-45, 5-{5-Methyl-2-[6-(piperazine-1-carbonyl)-pyridin-3-ylamino]-pyrimidin-4-ylamino}-3H-benzooxazol-2-one] as the molecule, how does the IC50 (Homo sapiens, T-cell) read?
Answer: < 500 nM

From US10005767B2, “Compositions and methods for inhibition of the JAK pathway” (Rigel Pharmaceuticals, Inc., priority 2009, dated 2018)
